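Grown in 96-well plates, cells were treated for 48 hours with each compound at five concentrations. Insufficient inhibition: endpoint recorded as highest concentration tested. TGI: total growth inhibition.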
How the values were obtained:
Test in all cases: inhibition of tumour cell growth, NCI panel, 48 h
MDA-MB-231 breast = tested on: MDA-MB-231 breast
SF-268 CNS = tested on: SF-268 CNS
SR leukemia = tested on: SR leukemia
HOP-92 NSCLC = tested on: HOP-92 NSCLC
SK-MEL-5 melanoma = tested on: SK-MEL-5 melanoma
SK-MEL-2 melanoma = tested on: SK-MEL-2 melanoma
NCI-H226 lung = tested on: NCI-H226 lung
SNB-19 CNS = tested on: SNB-19 CNS
SF-539 CNS = tested on: SF-539 CNS
MDA-MB-435 = tested on: MDA-MB-435
BT-549 breast = tested on: BT-549 breast
UO-31 renal = tested on: UO-31 renal
HL-60(TB) leukemia = tested on: HL-60(TB) leukemia
A549 NSCLC = tested on: A549 NSCLC
CAKI-1 renal = tested on: CAKI-1 renal
OVCAR-5 ovarian = tested on: OVCAR-5 ovarian
OVCAR-4 ovarian = tested on: OVCAR-4 ovarian
MCF7 breast = tested on: MCF7 breast
RXF 393 renal = tested on: RXF 393 renal
DU-145 prostate = tested on: DU-145 prostate
OVCAR-3 ovarian = tested on: OVCAR-3 ovarian
A498 renal = tested on: A498 renal
HT29 colon = tested on: HT29 colon
EKVX NSCLC = tested on: EKVX NSCLC
SK-OV-3 ovarian = tested on: SK-OV-3 ovarian
NCI/ADR-RES ovarian = tested on: NCI/ADR-RES ovarian
SN12C renal = tested on: SN12C renal
SF-295 CNS = tested on: SF-295 CNS
LOX IMVI melanoma = tested on: LOX IMVI melanoma
KM12 colon = tested on: KM12 colon
MDA-N = tested on: MDA-N
PC-3 prostate = tested on: PC-3 prostate
HCT-116 colon = tested on: HCT-116 colon
SK-MEL-28 melanoma = tested on: SK-MEL-28 melanoma
OVCAR-8 ovarian = tested on: OVCAR-8 ovarian
U251 CNS = tested on: U251 CNS
HS 578T breast = tested on: HS 578T breast
HOP-62 NSCLC = tested on: HOP-62 NSCLC
TK-10 renal = tested on: TK-10 renal
UACC-62 melanoma = tested on: UACC-62 melanoma
IGROV1 ovarian = tested on: IGROV1 ovarian
COLO 205 colon = tested on: COLO 205 colon
786-0 renal = tested on: 786-0 renal
SNB-75 CNS = tested on: SNB-75 CNS
ACHN renal = tested on: ACHN renal
SW-620 colon = tested on: SW-620 colon
MOLT-4 leukemia = tested on: MOLT-4 leukemia
T-47D breast = tested on: T-47D breast
CCRF-CEM leukemia = tested on: CCRF-CEM leukemia
NCI-H23 lung = tested on: NCI-H23 lung
HCC-2998 colon = tested on: HCC-2998 colon
RPMI-8226 leukemia = tested on: RPMI-8226 leukemia
NCI-H460 lung = tested on: NCI-H460 lung
MALME-3M melanoma = tested on: MALME-3M melanoma
UACC-257 melanoma = tested on: UACC-257 melanoma
M14 melanoma = tested on: M14 melanoma
K-562 leukemia = tested on: K-562 leukemia
NCI-H522 lung = tested on: NCI-H522 lung
HCT-15 colon = tested on: HCT-15 colon

Question: `CC(=O)[C@H]1CC[C@H]2[C@@H]3CCC4=CC(=O)CC[C@]4(C)[C@H]3CC[C@]12C` was tested. Which TGI (MDA-MB-231 breast) did it give?
Answer: Its TGI is 33.2 µM.

Question: And the TGI (SF-268 CNS)?
Answer: Its TGI is 69.8 µM.

Question: And the TGI (SR leukemia)?
Answer: Its TGI is over 100 µM.

Question: And the TGI (HOP-92 NSCLC)?
Answer: Its TGI is 71.3 µM.

Question: What about the TGI (SK-MEL-5 melanoma) of the same compound?
Answer: The TGI was 24.8 µM.

Question: What about the TGI (SK-MEL-2 melanoma) of the same compound?
Answer: The TGI was 44.3 µM.

Question: And the TGI (NCI-H226 lung)?
Answer: The TGI was 45 µM.

Question: And the TGI (SNB-19 CNS)?
Answer: The TGI was over 100 µM.

Question: What about the TGI (SF-539 CNS) of the same compound?
Answer: Its TGI is 34.1 µM.

Question: And the TGI (MDA-MB-435)?
Answer: Its TGI is 39.3 µM.

Question: What about the TGI (BT-549 breast) of the same compound?
Answer: Its TGI is 32.1 µM.

Question: What about the TGI (UO-31 renal) of the same compound?
Answer: Its TGI is 26.4 µM.

Question: What about the TGI (HL-60(TB) leukemia) of the same compound?
Answer: Its TGI is 87.1 µM.

Question: And the TGI (A549 NSCLC)?
Answer: Its TGI is 88.5 µM.

Question: And the TGI (CAKI-1 renal)?
Answer: Its TGI is over 100 µM.

Question: What about the TGI (OVCAR-5 ovarian) of the same compound?
Answer: Its TGI is 50.9 µM.

Question: What about the TGI (OVCAR-4 ovarian) of the same compound?
Answer: The TGI was 79.3 µM.

Question: What about the TGI (MCF7 breast) of the same compound?
Answer: Its TGI is 50.4 µM.

Question: What about the TGI (RXF 393 renal) of the same compound?
Answer: The TGI was 57.9 µM.

Question: What about the TGI (DU-145 prostate) of the same compound?
Answer: The TGI was 94.3 µM.

Question: And the TGI (OVCAR-3 ovarian)?
Answer: Its TGI is 35 µM.

Question: What about the TGI (A498 renal) of the same compound?
Answer: Its TGI is 67.1 µM.

Question: And the TGI (HT29 colon)?
Answer: Its TGI is 29.7 µM.

Question: And the TGI (EKVX NSCLC)?
Answer: The TGI was 9.66 µM.

Question: And the TGI (SK-OV-3 ovarian)?
Answer: The TGI was 62.9 µM.

Question: And the TGI (NCI/ADR-RES ovarian)?
Answer: Its TGI is 31.3 µM.

Question: And the TGI (SN12C renal)?
Answer: Its TGI is 41.1 µM.

Question: What about the TGI (SF-295 CNS) of the same compound?
Answer: Its TGI is 76 µM.

Question: What about the TGI (LOX IMVI melanoma) of the same compound?
Answer: Its TGI is 33.3 µM.

Question: And the TGI (KM12 colon)?
Answer: The TGI was 31.5 µM.

Question: What about the TGI (MDA-N) of the same compound?
Answer: Its TGI is 35.9 µM.

Question: And the TGI (PC-3 prostate)?
Answer: Its TGI is 39.3 µM.

Question: And the TGI (HCT-116 colon)?
Answer: The TGI was 28.5 µM.

Question: What about the TGI (SK-MEL-28 melanoma) of the same compound?
Answer: The TGI was 37.7 µM.

Question: What about the TGI (OVCAR-8 ovarian) of the same compound?
Answer: The TGI was 47.3 µM.

Question: And the TGI (U251 CNS)?
Answer: The TGI was 34.1 µM.

Question: What about the TGI (HS 578T breast) of the same compound?
Answer: The TGI was 19.7 µM.

Question: And the TGI (HOP-62 NSCLC)?
Answer: Its TGI is 45.4 µM.

Question: What about the TGI (TK-10 renal) of the same compound?
Answer: The TGI was 52.2 µM.

Question: What about the TGI (UACC-62 melanoma) of the same compound?
Answer: The TGI was 30.1 µM.

Question: And the TGI (IGROV1 ovarian)?
Answer: Its TGI is 71.4 µM.

Question: What about the TGI (COLO 205 colon) of the same compound?
Answer: Its TGI is 29.5 µM.

Question: What about the TGI (786-0 renal) of the same compound?
Answer: Its TGI is 54.2 µM.

Question: What about the TGI (SNB-75 CNS) of the same compound?
Answer: Its TGI is 65.6 µM.

Question: What about the TGI (ACHN renal) of the same compound?
Answer: Its TGI is 75.2 µM.

Question: And the TGI (SW-620 colon)?
Answer: Its TGI is over 100 µM.

Question: And the TGI (MOLT-4 leukemia)?
Answer: Its TGI is 35.2 µM.

Question: What about the TGI (T-47D breast) of the same compound?
Answer: The TGI was 57.8 µM.

Question: And the TGI (CCRF-CEM leukemia)?
Answer: The TGI was 48 µM.

Question: And the TGI (NCI-H23 lung)?
Answer: The TGI was 35.7 µM.

Question: What about the TGI (HCC-2998 colon) of the same compound?
Answer: Its TGI is 31.4 µM.

Question: What about the TGI (RPMI-8226 leukemia) of the same compound?
Answer: The TGI was 26.3 µM.

Question: What about the TGI (NCI-H460 lung) of the same compound?
Answer: Its TGI is 42.4 µM.

Question: And the TGI (MALME-3M melanoma)?
Answer: Its TGI is 35.8 µM.

Question: And the TGI (UACC-257 melanoma)?
Answer: The TGI was 27.2 µM.

Question: And the TGI (M14 melanoma)?
Answer: Its TGI is 32.4 µM.

Question: What about the TGI (K-562 leukemia) of the same compound?
Answer: The TGI was 43.2 µM.

Question: And the TGI (NCI-H522 lung)?
Answer: Its TGI is 31 µM.

Question: And the TGI (HCT-15 colon)?
Answer: The TGI was 69.3 µM.
